From the NIST ThermoML archive (doi:10.1016/j.jct.2012.02.006)
± gives the expanded uncertainty stated by the source.

Experiment: molar heat capacity at constant pressure
Conditions: 298.15 K; 101.33 kPa; Liquid; Small sample (50 mg) DSC

Row | molar heat capacity at constant pressure [J/K/mol] | SMILES
1 | 626.77 ± 63 | CCCCCC[C@@H](O)C/C=C\CCCCCCCC(=O)O [[R]-12-hydroxy-cis-9-octadecenoic acid]
2 | 696.53 ± 70 | CCCCCC[C@@H](O)CC=CCCCCCCCC(=O)OC [[R]-methyl 12-hydroxy-9-octadecenoate]
